Reference: patent publication US20250032438A1, “METHOD FOR ALLEVIATING OXIDATIVE STRESS” (Nissui Corporation, priority 2021, published 2025)

Experiments:
[1] = system: Human alveolar epithelial cells; test: Example 2: effect of protection from oxidative stress (CCK8 survival after 800 μM hydrogen peroxide); type: cell-based; conditions: 24 h pre-incubation, 800 μM hydrogen peroxide 8 h, FIG. 2
Description: Human alveolar epithelial cells were seeded on a 96-well microplate at 8×10^3/well, and cultured overnight at 37° C. and 5% CO2. […] The medium was removed by suction, and then exchanged for a medium containing 800 μM hydrogen peroxide, followed by incubation at 37° C. and 5% CO2 for 8 hours. CCK8 (DOJINDO LABORATORIES) was added to each well, and the absorbance of the sample at 450 nm after 1.5 hours was measured. The relative survival rate of each treatment section was calculated, where the absorbance value of a well without hydrogen peroxide treatment was 1. • Test section 1: control • Test section 2: hydrogen peroxide • Test section 3: 10 μM arachidonic acid (C20:4n-6) ethyl ester+hydrogen peroxide • Test section 4: 30 μM arachidonic acid (C20:4n-6) ethyl ester+hydrogen peroxide • Test section 5: 10 μM C32:4n-6 ethyl ester+hydrogen peroxide • Test section 6: 30 μM C32:4n-6 ethyl ester+hydrogen peroxide

[2] = system: Human retinal pigment epithelial cells; test: Example 3: effect of protection from oxidative stress (CCK8 survival after 300 μM hydrogen peroxide); type: cell-based; conditions: compared to the non-treatment condition or arachidonic acid (C20:4n-6) ethyl ester at the same treatment concentration (10 or 30 μM); 24 h pre-incubation, 300 μM hydrogen peroxide 24 h; FIG. 3
Description: The medium was removed by suction, and then exchanged for a medium containing 300 μM hydrogen peroxide, followed by incubation at 37° C. and 5% CO2 for 24 hours. CCK8 (DOJINDO LABORATORIES) was added to each well, and the absorbance of the sample at 450 nm after 1.5 hours was measured.

[3] = system: Human retinal pigment epithelial cells; test: Example 4: effect of protection from oxidative stress (CCK8 survival after hydrogen peroxide); type: cell-based; conditions: compared to the non-treatment condition or eicosapentaenoic acid (C20:5n-3) ethyl ester at the same treatment concentration (10 or 30 μM); 24 h pre-incubation, hydrogen peroxide 24 h; FIG. 4
Description: The medium was removed by suction, and then exchanged for a medium containing […] hydrogen peroxide, followed by incubation at 37° C. and 5% CO2 for 24 hours. CCK8 (DOJINDO LABORATORIES) was added to each well, and the absorbance of the sample at 450 nm after 1.5 hours was measured. The relative survival rate of each treatment section was calculated, where the absorbance value of a well without hydrogen peroxide treatment was 1. • Test section 1: control • Test section 2: hydrogen peroxide • Test section 3: 10 μM eicosapentaenoic acid […] ethyl ester+hydrogen peroxide • Test section 4: 30 μM eicosapentaenoic acid […] ethyl ester+hydrogen peroxide • Test section 5: 10 μM C34:5n-3 ethyl ester+hydrogen peroxide • Test section 6: 30 μM C34:5n-3 ethyl ester+hydrogen peroxide

[4] = system: Human alveolar epithelial cells; conditions: 800 μM hydrogen peroxide for 1 hour, compared to non-treatment section; FIG. 1
Description: Human alveolar epithelial cells were seeded on a 96-well microplate at 1.5×10^4/well, and cultured overnight at 37° C. and 5% CO2. The medium was removed by suction, and exchanged for a medium containing 40 μM DCFH-DA (Wako Pure Chemical Industries, Ltd.), followed by incubation for 30 minutes. […] The fluorescence intensity at each of 485 nm in excitation and 538 nm in emission was measured with a fluorescence plate reader.

[5] = compared to the section treated with hydrogen peroxide alone, 10 or 30 μM

Q: Which results are given for `CCCCC/C=C\C/C=C\C/C=C\C/C=C\CCCCCCCCCCCCCCCC(=O)OCC` [C32:4n-6 ethyl ester]?
A: relative cell survival rate after hydrogen peroxide treatment ([1]; compared to arachidonic acid (C20:4n-6) ethyl ester at the same treatment concentration (10 or 30 μM)): significantly higher; relative cell survival rate after hydrogen peroxide treatment [1, 5]: significantly higher; relative cell survival rate after hydrogen peroxide treatment [2]: significantly higher

Q: `CCC=CCC=CCC=CCC=CCC=CCCCCCCCCCCCCCCCCCC(=O)OCC` [C34:5n-3 ethyl ester] was tested. Which “relative cell survival rate after hydrogen peroxide treatment” value [3] did it give?
A: significantly higher

Q: How did the “relative production amount of ROS (reactive oxygen species)” value [4] turn out when `OO` [hydrogen peroxide] was run?
A: significantly larger

Q: `CCCCC/C=C\C/C=C\C/C=C\C/C=C\CCCC(=O)OCC` [arachidonic acid (C20:4n-6) ethyl ester, reference compound] was tested. Which “relative cell survival rate after hydrogen peroxide treatment” value [1, 5] did it give?
A: significantly lower
